Assay results: patent US20070185077A1, “Methods of treating, preventing and inhibiting cancer metastasis and tumor formation” (Washington University, priority 2003, published 2007)
Bridge positions count the residues as written; N and C are the ends. Square brackets hold non-standard residues; d marks the D form. Peptide text beside a SMILES is read from it. Phe(4-CH2NH2) = NCc1ccc(C[C@H](N)C(=O)O)cc1; Thz(5,5-Me2) = CC1(C)SCN[C@@H]1C(=O)O; NMeR = CN[C@@H](CCCNC(=N)N)C(=O)O; 3Amb = NCc1cccc(C(=O)O)c1; dAbu = CC[C@@H](N)C(=O)O

Key:
platelet aggregation = assay: Platelet aggregation after in vivo oral administration (aggregometry from PRP); parameters: species or system mice; settings: after an oral dose of 100 mg/kg
From the text: An activated αIIbβ3 receptor antagonist in β3^+/+ mice was utilized in examples showing the role of platelet β3 integrin in the protection from bone metastases seen in the β3^−/− mouse. […] However, those skilled in the art will recognize that additional activated αIIbβ3 receptor antagonists may be used in the methods, the efficacies of which may be determined using the protocols of the present disclosure. Additional protocols are available to those skilled in the art to determine the efficacy of other activated αIIbβ3 receptor antagonists. Such activated αIIb3 receptor antagonists are meant to be encompassed within the scope of the present invention.
(§1) C57BI6 mice were used to analyze metastasis antagonism. […] Blockade of platelet aggregation is complete at 30 minutes after oral gavage but persists for up to 10 hours. […] Thirty minutes after the first oral-gavage dose, mice were LV injected with B16 cells and evaluated for metastases 14 days later.

B16 melanoma cells = assay: B16 LV injection metastasis model in β3+/+ mice; type: in vivo
Protocol: The activated αIIbβ3 receptor antagonist was tested based on its ability to diminish metastases in wild type mice. […] The mice were treated 30 minutes prior to the LV injection of 1×10^5 B16 cells, and then every 12 hours for 5 doses (2.5 days of treatment out of the 14 day experiment). 14/40 (35%) mice died from bleeding complications after the LV injection indicative of effective disruption of αIIbβ3 mediated platelet aggregation. 1/17 (6%) placebo treated mice died after the LV injection procedure. […] Placebo in DMSO carrier was also administered by oral gavage. Mice were evaluated 14 days after B16 injection for bone and visceral metastases.
Mice were anaesthetized followed by injection with 30 gauge needles of 1×10^5 B16 cells in 100 μl PBS into the left cardiac ventricle as previously described. Confirmation of correct insertion was established by pulsing geyser of blood in the syringe. After the injection mice were monitored daily for 14 days.
as §1

[1] = cited from earlier work
[2] = target: platelet GPIIb/IIIa receptors (Homo sapiens, UniProt P05106+P08514); settings: cited from earlier work
[3] = target: activated platelet GPIIb/IIIa receptors (Homo sapiens, UniProt P05106+P08514); settings: cited from earlier work; for affinity for activated versus resting platelet GPIIb/IIIa: resting vs activated form
[4] = target: resting platelet GPIIb/IIIa receptors (Homo sapiens, UniProt P05106+P08514); settings: resting form of GPIIb/IIIa; cited from earlier work
resting platelet GPIIb/IIIa receptors, sequence (P08514 32-887 limits assumed): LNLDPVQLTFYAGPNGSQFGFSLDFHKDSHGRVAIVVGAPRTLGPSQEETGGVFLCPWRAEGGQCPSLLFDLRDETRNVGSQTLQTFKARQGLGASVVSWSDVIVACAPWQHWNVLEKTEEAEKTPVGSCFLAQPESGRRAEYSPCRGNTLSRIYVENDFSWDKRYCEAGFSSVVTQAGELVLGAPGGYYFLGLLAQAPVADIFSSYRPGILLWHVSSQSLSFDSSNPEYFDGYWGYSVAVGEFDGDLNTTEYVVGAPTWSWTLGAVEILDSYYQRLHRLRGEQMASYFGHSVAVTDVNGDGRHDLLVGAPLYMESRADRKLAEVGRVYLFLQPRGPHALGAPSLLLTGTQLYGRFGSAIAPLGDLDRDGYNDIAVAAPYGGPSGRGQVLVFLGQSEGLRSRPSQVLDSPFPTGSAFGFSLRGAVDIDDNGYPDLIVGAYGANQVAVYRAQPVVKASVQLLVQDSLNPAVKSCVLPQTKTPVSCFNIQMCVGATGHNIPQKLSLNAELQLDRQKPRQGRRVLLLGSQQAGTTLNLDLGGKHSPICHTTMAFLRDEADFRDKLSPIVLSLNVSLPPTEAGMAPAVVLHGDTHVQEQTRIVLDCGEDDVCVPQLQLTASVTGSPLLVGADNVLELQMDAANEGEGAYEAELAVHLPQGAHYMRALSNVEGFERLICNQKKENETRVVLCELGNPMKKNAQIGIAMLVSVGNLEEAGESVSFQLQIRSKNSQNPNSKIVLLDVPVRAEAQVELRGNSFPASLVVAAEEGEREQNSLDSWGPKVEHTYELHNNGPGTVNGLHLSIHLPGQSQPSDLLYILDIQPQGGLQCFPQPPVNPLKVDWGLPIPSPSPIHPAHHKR
resting platelet GPIIb/IIIa receptors, sequence (P08514 891-1039 limits assumed): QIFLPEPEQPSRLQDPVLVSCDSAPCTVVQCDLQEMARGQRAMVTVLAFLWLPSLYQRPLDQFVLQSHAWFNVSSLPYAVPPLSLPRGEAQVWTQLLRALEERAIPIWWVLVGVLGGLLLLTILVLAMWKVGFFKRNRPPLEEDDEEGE
resting platelet GPIIb/IIIa receptors, sequence (P05106 27-788): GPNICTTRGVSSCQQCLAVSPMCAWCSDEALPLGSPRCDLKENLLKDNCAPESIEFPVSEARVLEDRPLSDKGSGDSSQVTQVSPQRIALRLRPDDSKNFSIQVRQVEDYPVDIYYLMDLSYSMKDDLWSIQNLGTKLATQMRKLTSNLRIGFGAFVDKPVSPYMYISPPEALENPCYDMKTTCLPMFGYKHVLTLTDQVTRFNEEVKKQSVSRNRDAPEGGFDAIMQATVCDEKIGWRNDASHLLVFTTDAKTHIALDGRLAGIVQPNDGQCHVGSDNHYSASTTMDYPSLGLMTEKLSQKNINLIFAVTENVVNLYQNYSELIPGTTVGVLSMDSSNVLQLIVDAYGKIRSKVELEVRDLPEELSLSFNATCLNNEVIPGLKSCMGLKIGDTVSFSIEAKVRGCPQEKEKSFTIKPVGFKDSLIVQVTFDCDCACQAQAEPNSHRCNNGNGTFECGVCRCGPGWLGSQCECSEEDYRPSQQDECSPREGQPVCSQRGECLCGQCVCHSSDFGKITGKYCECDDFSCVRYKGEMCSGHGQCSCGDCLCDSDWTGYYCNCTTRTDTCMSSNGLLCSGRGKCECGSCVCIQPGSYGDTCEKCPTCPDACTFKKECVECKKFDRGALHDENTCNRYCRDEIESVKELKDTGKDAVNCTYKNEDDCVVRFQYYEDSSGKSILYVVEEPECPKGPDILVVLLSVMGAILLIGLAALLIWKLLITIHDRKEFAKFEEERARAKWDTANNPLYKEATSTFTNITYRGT

activated platelet GPIIb/IIIa receptors, sequence (P08514 32-887 limits assumed): as the sequence (P08514 32-887 limits assumed) above
activated platelet GPIIb/IIIa receptors, sequence (P08514 891-1039 limits assumed): as the sequence (P08514 891-1039 limits assumed) above
activated platelet GPIIb/IIIa receptors, sequence (P05106 27-788): as the sequence (P05106 27-788) above
platelet GPIIb/IIIa receptors, sequence (P08514 32-887 limits assumed): as the sequence (P08514 32-887 limits assumed) above
platelet GPIIb/IIIa receptors, sequence (P08514 891-1039 limits assumed): as the sequence (P08514 891-1039 limits assumed) above
platelet GPIIb/IIIa receptors, sequence (P05106 27-788): as the sequence (P05106 27-788) above

CCOC(=O)CCNC(=O)N1CCC2(CC1)CCN(c1ccc(C(=N)NO)cc1)C2=O [ML464]
duration of disruption of platelet aggregation (platelet aggregation): up to 10 hours | surviving mice with bone metastases (B16 melanoma cells; 100 mg/Kg oral every 12 hours for 5 doses, 14 days after B16 LV injection, vehicle 76%, P=0.0013): 23% | visceral metastases versus placebo (B16 melanoma cells; 100 mg/Kg oral every 12 hours for 5 doses, day 14, P=0.0125): decrease | mice died from bleeding complications after the LV injection (B16 melanoma cells; 100 mg/Kg oral gavage, 30 minutes prior to LV injection, 14/40 mice): 35% | number and size of visceral metastases versus placebo group (B16 melanoma cells; mice that did develop metastases, tumor sizes not measured): reduced | metastases in inhibitor treated mice compared to placebo treated mice (B16 melanoma cells; β3+/+ mice, FIG. 5(b)): decrease of metastases

Abciximab: Fab fragment of the chimeric human-murine monoclonal antibody 7E3
human antibody response to the chimeric antibody, patients [1]: approximately 6%

CCCCOC(=O)N[C@@H](CNC(=O)C[C@H]1CC(c2ccc(C(=N)N)cc2)=NO1)C(=O)OC [roxifiban]
platelet dissociation rate [2]: relatively slow | affinity for activated versus resting platelet GPIIb/IIIa [3]: comparable Kd values

CC[C@H]1NC(=O)c2cccc(c2)CNC(=O)[C@H](CC(=O)O)NC(=O)CNC(=O)[C@H](CCCN=C(N)N)N(C)C1=O.CS(=O)(=O)O [DMP728] (cyclo([NMeR]GD[3Amb][dAbu]))
platelet dissociation rate [2]: relatively fast | affinity for activated versus resting platelet GPIIb/IIIa [3]: much higher affinity to the activated form

C[C@H](CC(=O)O)NC(=O)CN1CCC[C@@H](CCC2CCNCC2)C1=O [L734217]
platelet dissociation rate [2]: relatively fast | Kd ([3]; activated form of GPIIb/IIIa): 5 nM | affinity for activated versus resting platelet GPIIb/IIIa [3]: much higher affinity to the activated form | Kd [4]: 620 nM

CC(=O)N[C@H]1CSSC[C@@H](C(=O)O)NC(=O)[C@H](CC(=O)O)NC(=O)CNC(=O)[C@H](Cc2ccc(CN)cc2)NC(=O)[C@H]2N(CSC2(C)C)C(=O)[C@@H](CC(N)=O)NC1=O [MK852] (Ac-C[dN][Thz(5,5-Me2)][Phe(4-CH2NH2)]GDC-OH; disulfide 1-7)
platelet dissociation rate [2]: relatively fast | affinity for activated versus resting platelet GPIIb/IIIa [3]: much higher affinity to the activated form
